Assay results from the NIST ThermoML archive (doi:10.1016/j.jct.2015.11.009).
± gives the expanded uncertainty stated by the source.

Legend:
[1] = xn = mol fraction of the nth substance listed; details: 100 kPa, Liquid, x1 = 1; for speed of sound: Frequency=3 MHz, Sing-around technique in a fixed-path interferometer; for mass density: Vibrating tube method
[2] = refractive index (Na D-line) (dimensionless); xn = mol fraction of the nth substance listed; details: 100 kPa, Liquid, Standard Abbe refractometry, x1 = 1
[3] = 100 kPa, Liquid; for speed of sound: Frequency=3 MHz, Sing-around technique in a fixed-path interferometer; for mass density: Vibrating tube method
[4] = refractive index (Na D-line) (dimensionless); details: 100 kPa, Liquid, Standard Abbe refractometry

CCCCn1cc[n+](C)c1.F[B-](F)(F)F [1-butyl-3-methylimidazolium tetrafluoroborate] + O=C1CCCN1
speed of sound ([1]; 298.15 K): 1565.1 ± 1.6 m/s | mass density ([1]; 298.15 K): 1198.78 ± 1.1 kg/m3 | speed of sound ([1]; 303.15 K): 1553.2 ± 1.6 m/s | mass density ([1]; 303.15 K): 1195.18 ± 1.1 kg/m3 | speed of sound ([1]; 308.15 K): 1541.3 ± 1.6 m/s | mass density ([1]; 308.15 K): 1191.6 ± 1.1 kg/m3 | speed of sound ([1]; 313.15 K): 1529.7 ± 1.6 m/s | mass density ([1]; 313.15 K): 1188.04 ± 1.1 kg/m3 | speed of sound ([1]; 318.15 K): 1518.2 ± 1.6 m/s | mass density ([1]; 318.15 K): 1184.5 ± 1.1 kg/m3 | speed of sound ([1]; 323.15 K): 1506.8 ± 1.6 m/s | mass density ([1]; 323.15 K): 1180.98 ± 1.1 kg/m3 | refractive index ([2]; 298.15 K): 1.42058 ± 0.00087 | refractive index ([2]; 303.15 K): 1.41913 ± 0.00087 | refractive index ([2]; 308.15 K): 1.41764 ± 0.00087 | refractive index ([2]; 313.15 K): 1.41621 ± 0.00087 | refractive index ([2]; 318.15 K): 1.41472 ± 0.00087 | refractive index ([2]; 323.15 K): 1.4133 ± 0.00087

O=C1CCCN1 [2-pyrrolidinone]
speed of sound ([3]; 298.15 K): 1634.4 ± 1.4 m/s | mass density ([3]; 298.15 K): 1107.16 ± 1 kg/m3 | speed of sound ([3]; 303.15 K): 1618 ± 1.4 m/s | mass density ([3]; 303.15 K): 1103.07 ± 1 kg/m3 | speed of sound ([3]; 308.15 K): 1601.6 ± 1.4 m/s | mass density ([3]; 308.15 K): 1098.99 ± 1 kg/m3 | speed of sound ([3]; 313.15 K): 1585.4 ± 1.4 m/s | mass density ([3]; 313.15 K): 1094.9 ± 1 kg/m3 | speed of sound ([3]; 318.15 K): 1570.4 ± 1.4 m/s | mass density ([3]; 318.15 K): 1090.82 ± 1 kg/m3 | speed of sound ([3]; 323.15 K): 1553.5 ± 1.4 m/s | mass density ([3]; 323.15 K): 1086.75 ± 1 kg/m3 | refractive index ([4]; 298.15 K): 1.48591 ± 0.00086 | refractive index ([4]; 303.15 K): 1.48403 ± 0.00086 | refractive index ([4]; 308.15 K): 1.48218 ± 0.00086 | refractive index ([4]; 313.15 K): 1.48033 ± 0.00086 | refractive index ([4]; 318.15 K): 1.47841 ± 0.00086 | refractive index ([4]; 323.15 K): 1.47649 ± 0.00086
